The text below walks through data of patent publication US8026274B2, “Use of oxandrolone in the treatment of burns and other wounds” (Savient Pharmaceuticals, Inc., priority 1996, dated 2011).

“Also recorded” adds a separate entry of the source.

For series [1] the following is noted: in contrast to the majority of oral androgenic anabolic steroids; cited from earlier work.
Series [2] deals with burn patients (deep burn of 30-50% of body surface). Kind of series: Example 1: effect of oxandrolone on post-burn catabolism (I), recovery phase in burn patients. Format: in vivo, human. How it is done:
A study on the effect of oxandrolone on post-burn patients was performed as described below.
The patients included in this study had undergone: • a. catabolic phase until 80-90% of wound closure (4-10 weeks); • b. loss of 15-25% body weight (mostly lean body mass) during catabolic phase despite optimum nutrition;
The transition from “catabolic” to recovery “anabolic” was defined by: • a. No need for life support measures, being stable and out of the Intensive Care Unit (ICU); • b. No active infection (stress); • c. Open wound (not counting donor sites) not exceeding 10% Total Body Surface (TBS); • d. Patient taking oral diet with supplements or tube feeding (off parenteral feeding); • e. patient can actively participate in a physical therapy program with active ROM exercises accentuating the anabolic stimulus of exercise.
All patients were located in the burn step-down unit or in an acute rehabilitation hospital where daily information is retrieved from the physiatrist, nutritionist, and therapist.
The patients were divided into three groups in a prospective randomized manner: • Group 1: Standard nutritional goals as defined by the nutrition support service. • Group 2: Same as Group 1 plus 2-3 Met-Rx™ (protein supplement) per day (sufficient protein to increase daily protein intake to 2-2.2 g/kg/day). • Group 3: Same as Group 2 plus oxandrolone 20 mg orally four times daily. Measurements
The following factors were checked: • a. Subjective energy level (per Braintree study) 0-10; • b. Physical therapy index^1 (per Braintree study) 0-10: • 0 completes 25% session with fatigue • 2 completes 50% session with fatigue • 4 completes 75% session with fatigue • 6 completes 100% session with fatigue • 8 completes 100% session with no fatigue • 10 completes 100% session and more with no fatigue; • c. Weekly weight gain; • d. Daily nutritional profiles; • e. Measurement of lean body mass by bioelective impedance. ^1 assessment of muscle strength and endurance
The onset of the study was defined as the onset of the recovery phase (anabolic phase). Patients were studied for 3 weeks (from the onset of anabolism).

Series [3] relates to patients with alcoholic hepatitis. The conditions noted are these: dosages of up to 80 mg/day; cited from earlier work.
The conditions of series [4]: in vivo; cited from earlier work.
The subject of series [5] is pressure sores (decubitus ulcers) in a paraplegic patient. Description: Example 3: oxandrolone treatment of pressure sores (decubitus ulcers). It is filed as in vivo, human. Conditions: 20 mg per day orally, preliminary result. The text has this: A paraplegic patient was suffering from pressure sores (decubitus ulcers) which had been unhealed for over one year. […] Further experiments using oxandrolone for treatment of pressure sores and other wounds are planned.

The conditions of series [6]: doses below 80 mg; cited from earlier work.
Series [7] deals with burn patients (deep burn of 30-50% of body surface). Description: Example 2: effect of oxandrolone on post-burn catabolism (II), first three weeks of recovery phase. Format: in vivo, human. The protocol:
Another study on the effect of oxandrolone on post-burn patients was carried out as follows.
The onset of the study was defined as the onset of the recovery phase (anabolic phase). The study period included the first three weeks of the recovery phase. Although somewhat arbitrary, the beginning of the recovery period was determined for all patients using the following criteria: • a. No need for life support measures, with a stable cardiopulmonary status; • b. No active infection; • c. Basal body temperature below 99.5° F.; • d. Metabolic rate at rest (indirect calorimetry) being less than 130% of normal; • e. Open wound (not counting donor sites) not exceeding 10% TBS; • f. Patient taking adequate oral diet with supplements or tube feeding and off all parenteral feeding; • g. active participation in a physical therapy program including resistance exercises especially to large muscle groups.
The patients were divided into three groups in a prospective randomized manner: • Group 1: High protein high calorie ad lib oral diet and protein supplement Met-Rx™. The supplement was given in a quantity equal to approximately one liter so that total protein intake would approximate 2 g/kg/day. • Group 2: Same as Group I with the addition of oxandrolone 10 mg orally twice a day. • Group 3: ad lib oral diet and a protein hydrolysate supplement (Ensure-HN or Sustacal). These supplements contain approximately 40-45 g/l protein, 140-150 g/l carbohydrate and 30-37 g/l fat. Daily protein intake consumed equalled 1.3-1.5 g/kg or 75% above the RDA value for healthy normals of 0.8 g/kg. This group was managed in the ten months prior to the onset of this study.
All patients were located in the burn/trauma step-down unit and then transferred to an acute rehabilitation hospital usually within the first week of onset of the recovery period. A burn nurse coordinator followed all patients at the rehabilitation hospitals. All patients were monitored until discharge but only the first three week period was used for the study period.
The following factors were checked: • a. Fatigue was measured objectively through increases in pulse of over 75% of predicted maximum (based on age) and a respiratory rate exceeding 30 breaths per minute beyond one minute after completion of the activity. • b. Muscle function was quantitated using a physical therapy index. The physical therapy program was determined for each patient by the burn therapist team based on optimum projected goals to be achieved at the three week period. Standard isokinetic and resistance exercises were used to increase strength. Ambulation, stair climbing and the stationary bike were used to increase endurance. Since the basic components of therapy programs were nearly identical between patients, an index was developed which quantitated progress of patient performance:
• c. Body weight; • d. Daily nutritional profiles; • e. Liver function
Within each group, paired data was analyzed using Dunnett's T-test comparing individual time periods. Between groups, analysis was compared by use of a nonparametric method, the Wilcoxan Signed Rank Test. Standard regression analysis was also performed. A p<0.05 was considered significant.

Setting [8] is: Group III: oxandrolone 20 mg orally four times daily plus Met-Rx, 3 weeks.
Where [9] appears, read: Group 2: oxandrolone 10 mg orally twice a day plus Met-Rx.

Regarding `C[C@]12COC(=O)C[C@@H]1CC[C@@H]1[C@@H]2CC[C@@]2(C)[C@H]1CC[C@]2(C)O` [oxandrolone, 17α-methyl-17β-hydroxy-2-oxa-5α-androstan-3-one], in series [1], the hepatic metabolism result is listed as “relatively little hepatic metabolism”. Also, in series [2] (setting [8]), the “energy level (0-10)” value is on record as “markedly improved” and the “therapy (physical therapy index 0-10)” value was “markedly improved”. The “weight gain relative to Group I (standard nutrition)” value in series [2] (Group III: oxandrolone 20 mg orally four times daily plus Met-Rx, 4 patients, 3 weeks) is recorded as “four times that of Group I”. In series [2] (Group III: oxandrolone plus Met-Rx, compared with Group II), the food intake result is “apparent added stimulus to food intake”. The “lean body weight gain as share of weight gain, by bioelective impedance” value in series [2] (combination of Met-Rx and oxandrolone) is recorded as 80%. The safety result in series [3] is recorded as “safe”. In series [4], the “anabolic activity relative to its androgenic activity” value is listed as “approximately 6 times” and the “anabolic activity relative to that of methyltestosterone” value is reported as 6.3 times. Further, in series [5], the “healing of pressure sores unhealed for over one year” value is recorded as “the sores began to heal”. Moreover, the water retention entry in series [6] is reported as “not reported to occur”. In addition, the “maintenance of weight after discontinuation” value in series [7] (3 of 6 patients followed for eight weeks after discontinuation of three weeks of oxandrolone) is recorded as “the weight remained”. Also, in series [7] (setting [9]), the “average time of discharge from the rehabilitation or recovery phase to home” value was 22 ± 4 days, the “weight gain over the three week period relative to Group 1 (Met-Rx alone)” value is “double that of Group 1” and the “weight gain relative to retrospective Group 3 (standard supplements)” value is “nearly four times that of retrospective Group 3; also recorded: significantly increased”. The “physical therapy index (muscle strength and endurance, 0-10)” value in series [7] (Group 2: oxandrolone 10 mg orally twice a day plus Met-Rx, three weeks) is on record as “performance exceeded expectations; also recorded: significantly higher than either of the other groups; also recorded: significantly increased”. For the same compound, in series [7] (Group 2: oxandrolone 10 mg orally twice a day plus Met-Rx, one patient), the “liver function tests / chemical abnormality” value is recorded as “transient small increase in alkaline phosphatase”. Also, the hirsutism result in series [7] (the three women in the oxandrolone group) is given as “No hirsutism”.
